Assay results: publication PMC8912008, “Pharmacokinetic Study of Withanosides and Withanolides from Withania somnifera Using Ultra-High Performance Liquid Chromatography-Tandem Mass Spectrometry (UHPLC-MS/MS)” (Molecules, 2022)
Where two headings read alike, the source gives them in different places.

Columns and labels:
[1] = In vivo pharmacokinetic study after oral WSE; details: for AUC(0-inf) / AUC(0-t) / Cmax / MRT inf / Tmax / half-life / k el: male, Sprague Dawley; for AUC(0-inf) / AUC(0-t) / Cmax / MRT inf / Tmax / half-life / k el / oral clearance (Cl/F): rat
Source text: It is known that the hydrophobic interior surface of the cell membrane (lipid bilayer) serves as a barrier to the passage of polar and high molecular weight molecules.
Food pellets and tap water were provided ad libitum throughout the experimentation. The protocol to carry out in vivo pharmacokinetics was approved by The Institutional Animal Ethics Committee (IAEC) of Crystal Biological Solution, Pune, Maharashtra, India. […] Eighteen animals were subdivided into three groups, (n = 6) animals in each group. Withania somnifera extract suspension was prepared in water for oral administration, and the dose was calculated based on the acute oral toxicity study (500 mg/kg; single dose). […] The separated plasma samples were transferred into Eppendorf tubes and stored at −80 °C in a deep freezer until analysis. Ten pharmacokinetic parameters were determined using PK solver 2.0, USA [45, 46, 47]. The maximum observed concentration (Cmax) and maximum observed time (Tmax) were calculated directly from the experimental results. The elimination rate constant (Kel) was calculated from the slope of the linear regression of Log concentrations as a function of time. […] The area under the curve (AUC(0–t)) was calculated from the linear curve following the trapezoidal rule, while AUC(0–∞) was calculated by adding Ct/λ, with Ct being the final measurable concentration. Oral clearance (Cl/F) was obtained from the equation Cl/F = dose/AUC(0–∞). Mean residence time (MRT) was calculated as AUMC(0–∞)/AUC(0–∞), where AUMC(0–∞) is the area under the first moment curve. […] The pharmacokinetic parameters as the average of six rats ± SD. The mean plasma concentration Vs. time curve (mean ± SD) was prepared using Prism 8.2, (GraphPad, San Diego, CA, USA).

[2] = male rats, cited from earlier work
[3] = Balb/C mice, 4 mg/kg single intraperitoneal; cited from earlier work
[4] = mice, oral Withania somnifera aqueous extract 1000 mg/kg; cited from earlier work
[5] = Stability of analytes in rat plasma; details: n = 6; for Processed sample stability (% ± SD): processed rat plasma sample, 4 h; for Bench top Stability (% ± SD): 25 °C for 4 h; for Freeze-thaw stability (% ± SD): three freeze/thaw cycles
Procedure: Six replicates of quality control samples were analyzed at four concentration levels (LLOQ, LQC, MQC, and HQC; n = 6) on the same day (intra-day) and repeated for three consecutive days (inter-day) (Table S2). The precision was expressed as the relative standard deviation (% RSD), and accuracy was reported as the relative error (% RE). Later, these samples were analyzed for stability testing under the following conditions: three complete freeze/thaw cycles (−80 °C to 25 °C), long-term sample storage (−80 °C for 60 days), processed sample, and bench-top (25 °C for 4 h).

[6] = Ex vivo permeability study, everted rat intestine apparatus
Source text: (§1) The everted intestinal segment was mounted on the apparatus and setting it in the beaker. The internal surface of the glass tubes serves as the mucosal compartment, and the beaker serves as the serosal compartment. Animals were humanly sacrificed by cervical dislocation followed by a midline incision. The abdominal cavity was opened carefully, and the intestine was maneuvered to identify the ileocecal junction. A 7 cm long intestinal segment distant to the ileocecal junction (5–6 cm) was excised by carefully removing the mesenteric attachments without causing any damage to the intestinal architecture. The segment was cleaned using the Kreb’s Ringer Bicarbonate (KRB) buffer medium and was stored in KRB buffer in a petri dish. The cleaned segment was then everted gently using a glass rod. Finally, a 3 cm long intestinal segment was used to perform the permeability study [49, 50].
(§2) The tissue was mounted on the apparatus and was placed in a 1000 mL beaker containing 2 mg/mL WSE suspension. The intestinal segment was perfused from the mucosal end using the KRB buffer. The apparatus (beaker with tissue) was placed on the magnetic stirrer followed by continuous stirring using a magnetic bead at 25 rpm to mimic the peristaltic movement of the stomach at 37 °C with appropriate aeration. The sample collection at different time points was carried out every 5 min interval for 1 h. The collected samples were further diluted and analyzed using LC-MS/MS.
(§3) The sample was diluted to 20-fold in ACN and injected 2 µL into LC-MS/MS. Samples were stored at −20 °C until analysis using validated UHPLC-MS/MS. The permeability was obtained by plotting the cumulative amount transported (ng) across the gut sac against time (second).
(§4) The calculation of apparent permeability (Papp) was carried out using the following Equation (1):Papp = dQ/dt × 1/A × C0(1) where Papp: apparent permeability co-efficient; dQ/dt: the cumulative amount of drug (Q) appearing in the acceptor (serosal) compartment as a function of time and was obtained from the slope of the linear portion of the amount transported-versus-time plot. A: Surface area of the intestine (cm^2) (0.18 cm as radius) and C0: Initial concentration of drug in the donor compartment (ng/mL).

in vitro = details: rat
Source text: as §1, §2, §3, §4

[7] = high QC (nominal 200.50-201.50 ng/mL)
[8] = low QC (nominal 10.05-10.50 ng/mL)
[9] = rat plasma, high QC (nominal 200.50-201.50 ng/mL)
[10] = rat plasma, low QC (nominal 10.05-10.50 ng/mL)

| SMILES | plasma half-life (t1/2) [4] [min] | Processed sample stability (% ± SD) [5, 7] [%] | Processed sample stability (% ± SD) [5, 8] [%] | Bench top Stability (% ± SD) [5, 9] [%] | Bench top Stability (% ± SD) [5, 10] [%] | Autosampler stability (% ± SD) [5, 9] [%] | Autosampler stability (% ± SD) [5, 10] [%] | Freeze-thaw stability (% ± SD) [5, 9] [%] | Freeze-thaw stability (% ± SD) [5, 10] [%] | AUC(0-inf) ([1]; in vivo, po, 500 mg/kg) [ng·h/mL] | AUC(0-t) ([1]; in vivo, po, 500 mg/kg) [ng·h/mL] | Cmax ([1]; in vivo, po, 500 mg/kg) [ng/mL] | MRT inf ([1]; in vivo, po, 500 mg/kg) [min] | Tmax ([1]; in vivo, po, 500 mg/kg) [min] | half-life ([1]; in vivo, po, 500 mg/kg) [min] | k el ([1]; in vivo, po, 500 mg/kg) [s⁻¹] | oral clearance (Cl/F) ([1]; in vivo, po, 500 mg/kg) | Papp at 1 h, 2 mg/mL (in vitro) [×10⁻⁶ cm/s] | other results |
| --- | --- | --- | --- | --- | --- | --- | --- | --- | --- | --- | --- | --- | --- | --- | --- | --- | --- | --- | --- |
| CC1=C(CO)C(=O)O[C@@H]([C@@H](C)[C@H]2CC[C@H]3[C@@H]4C[C@H]5O[C@]56[C@@H](O)C=CC(=O)[C@]6(C)[C@H]4CC[C@]23C)C1 [Withaferin A] | 59.92 ± 15.90 | 99.56 ± 5.11 | 103.30 ± 8.41 | 94.72 ± 6.57 | 103.30 ± 8.41 | 108.40 ± 1.59 | 103.09 ± 4.95 | 102.10 ± 5.76 | 103.41 ± 5.62 |  |  |  |  |  |  |  |  |  | AUC(0-inf) ([1]; plasma, po, 500 mg/kg): 188 ± 20.5 ng·h/mL; AUC(0-t) ([1]; plasma, po, 500 mg/kg): 161 ± 18.9 ng·h/mL; Cmax ([1]; plasma, po, 500 mg/kg): 124 ± 64.9 ng/mL; MRT inf ([1]; plasma, po, 500 mg/kg): 231 ± 51.4 min; Tmax ([1]; plasma, po, 500 mg/kg): 15 min; half-life ([1]; plasma, po, 500 mg/kg): 189 ± 36.7 min; k el ([1]; plasma, po, 500 mg/kg): 6.28e-05 s⁻¹; oral clearance (Cl/F) ([1]; WSE 500 mg/kg oral single dose): 0.026 ± 0.003 (mg/kg)/(ng/mL)/h; bioavailability ([2]; withaferin A 10 mg/kg oral dose, 5 mg/kg I.V. dose): 32.4 ± 4.8%; Cmax ([2]; withaferin A 10 mg/kg oral): 619 ± 125 ng/mL; Tmax ([2]; withaferin A 10 mg/kg oral): 6.6 ± 4.2 min; half-life ([2]; withaferin A 10 mg/kg oral): 456 ± 198 min; AUC(0–t) [3]: 1.09 µM·h; Clearance from plasma [3]: 0.151 L/h; Cmax [3]: 1800 nM; Tmax [3]: 4.98 min; plasma half-life [3]: 81.6 min; Tmax [4]: 20.00 min; Long-term stability (% ± SD) ([5]; rat plasma, −80 °C for 60 days, high QC (nominal 200.50-201.50 ng/mL), the values are: measured concentration): 204 ± 8.81 ng/mL; Papp at 1 h, 2 mg/mL [6]: 0.113 ×10⁻⁶ cm/s |
| CC1=C(C)C(=O)O[C@@H]([C@](C)(O)[C@H]2CC[C@H]3[C@@H]4[C@@H]5O[C@@H]5[C@@]5(O)CC=CC(=O)[C@]5(C)[C@H]4CC[C@]23C)C1 [Withanolide A] | 45.22 ± 9.95 | 99.36 ± 6.79 | 128.43 ± 68.06 | 103.63 ± 6.10 | 102.00 ± 7.99 | 105.04 ± 3.63 | 105.35 ± 3.83 | 98.89 ± 4.24 | 102.18 ± 6.01 | 7.53 ± 1.83 | 4.18 ± 1.03 | 7.28 ± 3.34 | 75 ± 34.3 | 20 ± 7.74 | 43.7 ± 25.4 | 0.000391 | 0.356 ± 0.090 (mg/kg)/(ng/mL)/h | 0.0665 |  |
| CC1=C(C)C(=O)O[C@@H]([C@@H](C)[C@@]2(O)CC[C@H]3[C@@H]4[C@@H]5O[C@@H]5[C@@]5(O)CC=CC(=O)[C@]5(C)[C@H]4CC[C@@]32C)C1 [Withanone] |  | 99.56 ± 4.91 | 112.07 ± 37.93 | 98.87 ± 9.47 | 96.31 ± 6.27 | 111.25 ± 4.86 | 109.47 ± 4.01 | 98.14 ± 4.74 | 104.24 ± 7.98 |  |  |  |  |  |  |  |  | 0.0317 | concentration in plasma ([1]; rat plasma after WSE 500 mg/kg oral, LLOQ 3 ng/mL): below LLOQ |
| CC1=C(CO)C(=O)OC(C(C)C2CCC3C4C5OC5C5(O)CC=CC(=O)C5(C)C4CCC23C)C1 (centres unmarked) [12-Deoxy-withastramonolide] |  | 92.99 ± 8.83 | 121.14 ± 59.07 | 95.97 ± 7.13 | 97.92 ± 7.04 | 108.67 ± 1.94 | 101.72 ± 3.25 | 97.78 ± 4.28 | 101.34 ± 8.37 | 92.3 ± 13.5 | 82.9 ± 7.82 | 57.5 ± 7.52 | 140 ± 40 | 17.5 ± 6.12 | 104 ± 30.3 | 0.000121 | 0.016 ± 0.002 (mg/kg)/(ng/mL)/h | 0.122 |  |
